This assay concerns the target Plasma kallikrein (Homo sapiens, UniProt P03952). Description: Measurements were performed in a kinetic interval every 2nd minute for 16 min using a Spectramax M5 (Molecular Devices) with the following settings of the wavelength excitation of 350 nm and wavelength emission of 450 nm.

Sequence of Plasma kallikrein (P03952 20-390 limits assumed): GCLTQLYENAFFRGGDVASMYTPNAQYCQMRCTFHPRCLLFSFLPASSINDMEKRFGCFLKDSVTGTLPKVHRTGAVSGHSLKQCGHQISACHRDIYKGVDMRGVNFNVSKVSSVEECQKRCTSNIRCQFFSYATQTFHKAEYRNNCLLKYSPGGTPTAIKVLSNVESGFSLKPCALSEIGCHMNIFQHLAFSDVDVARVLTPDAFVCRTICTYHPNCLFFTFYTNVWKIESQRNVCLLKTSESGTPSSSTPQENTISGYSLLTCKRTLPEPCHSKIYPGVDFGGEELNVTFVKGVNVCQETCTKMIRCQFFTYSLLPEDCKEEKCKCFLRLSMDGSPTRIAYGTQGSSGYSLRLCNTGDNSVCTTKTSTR
Sequence of Plasma kallikrein (P03952 391-638 limits assumed): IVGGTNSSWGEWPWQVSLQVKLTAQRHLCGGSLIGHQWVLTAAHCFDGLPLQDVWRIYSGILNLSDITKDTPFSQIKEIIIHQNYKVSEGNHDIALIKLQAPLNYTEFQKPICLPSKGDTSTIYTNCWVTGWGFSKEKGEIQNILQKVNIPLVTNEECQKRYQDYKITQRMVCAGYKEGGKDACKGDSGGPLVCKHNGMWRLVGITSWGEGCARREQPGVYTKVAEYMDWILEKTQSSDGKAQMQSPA

One may read the Ki as the equilibrium dissociation constant of an inhibitor or competing ligand from its target. High values mean weaker binding, low ones tighter binding. The compound `Cc1nc(N2CC3C(C2)C3(F)F)ccc1Cn1cc(C(=O)N[C@@H]2CCc3c(C)n[nH]c32)c(C)n1` (some centres not stated) showed a Ki of 0.1 nM. In turn, `Cc1nc(N2CC3(CC3)C2)ccc1Cn1cc(C(=O)N[C@@H]2CCc3c(C)n[nH]c32)cn1` showed a Ki of 0.4 nM.

The values are drawn from ChEMBL document CHEMBL5727776, “Heteroaromatic carboxamide derivatives as plasma kallikrein inhibitors” (2020).
